Measured values from patent publication US11548952B2, “Bispecific antibody against CD3 and CD20 in combination therapy for treating diffuse large B-cell lymphoma” (GENMAB A/S, priority 2020, dated 2023).
Like-named read-outs stand apart in the source and are kept apart here.

Tests used:
[1] = system: R/R DLBCL eligible for ASCT; type: in vivo, human; details: in combination with R-DHAX/C, preliminary
Experimental: The trial is conducted in 2 parts: dose escalation (Part 1) and expansion (Part 2). Subjects participate in only one part. Both parts consist of a screening period, a treatment period, a safety follow-up period, and a survival follow-up period.
Epcoritamab is initially be administered in combination with R-DHAX/C in a 3-subject cohort. DLTs are evaluated during the first 28 days.
Dexamethasone (40 mg) is administered intravenously or orally on days 1-4 of a cycle once every 3 weeks (Q3W) for cycles 1-3. Cytarabine (2 g/m^2) is administered intravenously on day 1 (usually over 3 hours), repeated after 12 hours (may result in a second dose on day 2 depending on timing of first dose), once every 3 weeks (Q3W) for cycles 1-3. […] Carboplatin (for DHAC) (AUC=5 mg/ml/min; Calvert's formula) is administered intravenously on day 1 once every 3 weeks (Q3W) for cycles 1-3.
CRS is graded according to the ASTCT grading for CRS (Tables 6 and 7), and for treatment of CRS, subjects should receive supportive care. […]

[2] = system: CD20-expressing Raji-luc tumor cells; details: NOD-SCID mice injected with Raji-luc tumor cells and PBMCs; even in the presence of an excess of IgG1-RTX-FEAR; cited from earlier work
CD20 = target: T1, CD20 (Homo sapiens, UniProt P11836); details: bind to a different epitope; cited from earlier work
T1 sequence (P11836 1-297): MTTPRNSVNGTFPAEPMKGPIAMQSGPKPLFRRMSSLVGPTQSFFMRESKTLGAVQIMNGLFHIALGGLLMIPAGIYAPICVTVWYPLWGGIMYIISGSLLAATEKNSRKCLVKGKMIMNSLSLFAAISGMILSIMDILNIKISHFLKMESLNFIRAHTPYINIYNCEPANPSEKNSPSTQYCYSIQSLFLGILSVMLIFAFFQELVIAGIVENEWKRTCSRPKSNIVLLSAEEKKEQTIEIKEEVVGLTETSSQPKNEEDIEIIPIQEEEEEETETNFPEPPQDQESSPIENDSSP

Substance	responders observed ([1]; escalation phase, as of Sep. 8, 2021, 22 patients dosed in total)	responders observed ([1]; expansion phase 48 mg, as of Sep. 8, 2021, response data not completely entered)	tumor growth in the xenograft model [2]	competition for CD20 binding (CD20)
Epcoritamab: IgG1 bispecific CD3×CD20 antibody; heavy and light chain pairs SEQ ID NOs: 24 and 25, and 26 and 27; CAS 2134641-34-0	4	0	effectively reduce tumor growth	
IgG1-CD20: anti-CD20 antibody of which the CD20 arm of epcoritamab is derived				compete for CD20 binding
